How the values were obtained:
HCT-116 [1] = test: Antiproliferative activity against human HCT-116 cells assessed as inhibition of cell growth at 50 uM measured after 48 hrs by CCK8 assay relative to control; format: functional
U-251 [2] = test: Antiproliferative activity against human U-251 cells assessed as inhibition of cell growth measured after 48 hrs by CCK8 assay relative to control; format: functional, cell-based; details: U-251, 48 h
A549 [3] = test: Antiproliferative activity against human A549 cells assessed as inhibition of cell growth measured after 48 hrs by CCK8 assay relative to control; format: functional, cell-based; details: A549, 48 h
PC-3 [4] = test: Antiproliferative activity against human PC-3 cells assessed as inhibition of cell growth at 50 uM measured after 48 hrs by CCK8 assay relative to control; format: functional
[5] = Antiproliferative activity against human U-87 MG cells assessed as inhibition of cell growth at 50 uM measured after 48 hrs by CCK8 assay relative to control; format: functional, U-87MG ATCC
[6] = Antiproliferative activity against human U-87 MG cells assessed as inhibition of cell growth measured after 48 hrs by CCK8 assay relative to control; format: functional, cell-based, U-87MG ATCC
PC-3 [7] = test: Antiproliferative activity against human PC-3 cells assessed as inhibition of cell growth measured after 48 hrs by CCK8 assay relative to control; format: functional, cell-based; details: PC-3, 48 h
A549 [8] = test: Antiproliferative activity against human A549 cells assessed as inhibition of cell growth at 50 uM measured after 48 hrs by CCK8 assay relative to control; format: functional
HCT-116 [9] = test: Antiproliferative activity against human HCT-116 cells assessed as inhibition of cell growth measured after 48 hrs by CCK8 assay relative to control; format: functional, cell-based; details: HCT-116, 48 h
U-251 [10] = test: Antiproliferative activity against human U-251 cells assessed as inhibition of cell growth at 50 uM measured after 48 hrs by CCK8 assay relative to control; format: functional
PC-3 [11] = test: Potency index, […] for antiproliferative activity against human PC-3 cells assessed as inhibition of cell growth measured after 48 hrs by CCK8 assay; format: functional
A549 [12] = test: Potency index, […] for antiproliferative activity against human A549 cells assessed as inhibition of cell growth measured after 48 hrs by CCK8 assay; format: functional
[13] = Potency index, […] for antiproliferative activity against human U-87 MG cells assessed as inhibition of cell growth measured after 48 hrs by CCK8 assay; format: functional, U-87MG ATCC
HCT-116 [14] = test: Potency index, […] for antiproliferative activity against human HCT-116 cells assessed as inhibition of cell growth measured after 48 hrs by CCK8 assay; format: functional
U-251 [15] = test: Potency index, […] for antiproliferative activity against human U-251 cells assessed as inhibition of cell growth measured after 48 hrs by CCK8 assay; format: functional

For `C=C[C@]1(C)CC[C@@H](C(=C)C)C[C@H]1C(=C)C`, the inhibition at 50 µM (HCT-116 [1]) was < 20%, the IC50 (U-251 [2]) was 181 µM and the IC50 (A549 [3]) was 227 µM. For the same compound, the inhibition at 50 µM (PC-3 [4]) was < 20%, the inhibition at 50 µM [5] was < 20% and the IC50 [6] was 266 µM. For the same compound, the IC50 (PC-3 [7]) was 276 µM, the inhibition at 50 µM (A549 [8]) was < 20% and the IC50 (HCT-116 [9]) was 782 µM. The inhibition at 50 µM (U-251 [10]) was < 20%.

With `C=C[C@]1(C)CC[C@@H]2C[C@H]1C(=C)CN(C)CCN(C)Cc1cccc(c1)CN(C)CCN(C)CC2=C` the inhibition at 50 µM (HCT-116 [1]) was 94.8%, the IC50 (U-251 [2]) was 23 µM and the IC50 (A549 [3]) was 44.8 µM. For the same compound, the inhibition at 50 µM (PC-3 [4]) was 68.8%, the inhibition at 50 µM [5] was < 20% and the “Ratio IC50” value (PC-3 [11]) was 5. For the same compound, the IC50 (PC-3 [7]) was 38.6 µM, the inhibition at 50 µM (A549 [8]) was 60.7% and the “Ratio IC50” value (A549 [12]) was 5. For the same compound, the “Ratio IC50” value [13] was 5, the “Ratio IC50” value (HCT-116 [14]) was 20 and the IC50 (HCT-116 [9]) was 17.6 µM. For the same compound, the “Ratio IC50” value (U-251 [15]) was 5 and the inhibition at 50 µM (U-251 [10]) was 98.5%.
